In brackets after ≈: the same amount, converted by molar mass. Entries after “also recorded” stand apart in the source; their conditions may differ. Where a SMILES comes first, the peptide text is derived from it. [ ]: non-standard residue; d: D form.
Key:
[1] = test system: clinical strains of Acinetobacter johnsonii; format: cell-based
Experimental: (§1) Minimum inhibition concentrations (MICs) were determined against Escherichia coli (ATCC 25922), Staphylococcus aureus (ATCC 25923), Klebsiella pneumoniae (ATCC 10031) and Pseudomonas aeruginosa (ATCC 27853). Also clinical strains of E. coli, K. pneumoniae, E. cloacae, P. aeruginosa, Serratia marcescens, Proteus mirabilis, S. pneumoniae, Acinetobacter baumannii, A. johnsonii and S. aureus were used for MICs assays. Additionally, clinical strains of yeast including Candida albicans, C. glabrata, C. parapsilosis and C. quillermondiae were used. The susceptibility of these microorganisms to Chain peptides were determined using micro broth dilution assay. Colonies of the respective microorganism from Muller Hinton (MH) agar plates incubated overnight were suspended in MH broth media and final concentration of microorganism was adjusted to 5.0×10^5 cfu/ml. An aliquot of 10 μl of each Chain peptide, or gentamicin, tetracycline as reference antibiotics were added in differing concentrations along with 90 μl of bacterial suspension to 96 well polypropylene plates and incubated at 37° C. for 20 to 24 hours. Concentrations of Chain peptides and reference antibiotics ranged from 0.125 to 128 μg/ml and the MICs were recorded as the lowest concentration with no visual growth of bacteria. Similarly, antifungal MICs were tested in Potato dextrose broth.
(§2) Clinical strains of yeasts including Candida albicans, C. glabrata, C. parapsilosis and C. quillermondiae were also tested with the 12 Chain peptides. The minimum inhibitory concentration (MICs) varied between these peptides and are presented in Tables 4a, 4b, 4c and 5a, 5b, 5c. Peptides Chain 105, 201 and 308 are broad spectrum antimicrobials with MICs between 0.5-32 μg/ml against all the bacteria and yeasts tested, except Serratia marcescens and Proteus mirabilis, against which the MICs were between 64-128 μg/ml. Peptide Chain 306 has narrow spectrum activity against E.coli at 1 μg/ml and for the rest of the bacterial strains at >32 μg/ml (FIG. 10).

[2] = test system: clinical strains of C. quillermondiae; experiment: MIC, clinical yeast strains, C. quillermondiae; format: cell-based; conditions: C. quillermondiae clinical yeast strain 1
Experimental: as §1, §2

[3] = test system: clinical strains of Candida albicans; experiment: MIC, clinical yeast strains, Candida albicans; format: cell-based; set-up: unit: μg/ml
Experimental: as §1, §2

[4] = test system: clinical strains of C. parapsilosis; experiment: MIC, clinical yeast strains, C. parapsilosis; format: cell-based, Candida parapsilosis; set-up: unit: μg/ml
Experimental: as §1, §2

[5] = test system: clinical strains of C. glabrata; experiment: MIC, clinical yeast strains, C. glabrata; format: cell-based, Candida glabrata; set-up: unit: μg/ml
Experimental: as §1, §2

human erythrocytes = format: cell-based
Experimental: In hemolysis assays, the ability of peptides at 128 μg/ml concentration to lyse human erythrocytes to release hemoglobin was measured. The peptides described here preferably have low hemolytic activity (0.2 to 3.8% hemolysis) in mammal body. […] These peptides are useful as antimicrobial drugs as they show little or no side effects at concentrations needed to kill bacteria.
Minimum inhibition concentrations (MICs) were tested by microbroth dilution method and Chain 104, 105 and 109 inhibited the growth of Escherichia coli (ATCC 25922), Staphylococcus aureus (ATCC 25923), Klebsiella pneumoniae (ATCC 10031) and Pseudomonas aeruginosa (ATCC 27853) between 1-8 μg/ml respectively (Tables 3a, 3b and 3c). The membranolytic activities of the peptides were tested by measuring the release of hemoglobin from erythrocytes of fresh blood donated by voluntiers. Hemoglobin levels were determined spectrometrically by taking OD at 540 nm by following the protocol of Schmidtchen et al., 2011.

[6] = test system: Aspergillus flavus (DSM 1959); experiment: Radial diffusion assay, antifungal, A. flavus; format: cell-based; conditions: 20 μg
Experimental: (§3) The radial diffusion assay (RDA) was carried out as described by Andersen et al. (2010). Briefly, 30 ml of 1/10 Muller-Hinton broth (MHB) supplemented with 1% agarose and 5.0×10^5 CFU/ml S. aureus or E. coli or K. pneumoniae, P. aeruginosa cells was poured into a single-well omnitray (Nunc) and overlaid with a TSP 96-well plate. One hundred μg of each synthesized peptide was tested. The peptides were also tested against Fusarium oxysporum and Verticillium dahliae, for which 1/3 potato dextrose agarose was used. To test the synergistic effect of peptides, each peptide was mixed in equimolar concentrations. Mix1 (met1-12), Mix2 (met3, 4 and 5), Mix3 (met 8, 9 and 10), Mix 4 (met11, 12) and Mix5 (8, 9, 10, 11, 12) were prepared and tested against E. coli and S. aureus. Gentamicin and vancomycin were included as positive controls for bacteria and amphotericin B was used as the control for fungi.
(§4) By using rational design techniques, we have designed variants of peptides by incorporating or replacing various amino acids in the original peptides. Thus, we have designed and modified Chain 100, Chain 200 and Chain 300 with tryptophan (W), arginine (R) and lysine (K) at various positions to improve antimicrobial activity (FIGS. 4a-c and 5a-c). In some peptides we have also used other amino acids such as Leucine (L), Cysteine (C), Isoleucine (I), Phenylalanine (F) and Alanine (A). For synthesis, 32 variants and 3 original peptides were selected based on the various parameters such as positive charge, aliphatic index and instability index. Peptides variants were tested by using radial diffusion assay against Escherichia coli (ATCC 25922), Staphylococcus aureus (ATCC 25923), Klebsiella pneumoniae (ATCC 10031) and Pseudomonas aeruginosa (ATCC 27853) (FIGS. 6a-c). The zone of inhibition ranged between 10-18 mm for Escherichia coli and Staphylococcus aureus, 6-18 mm & 8-18 mm for Pseudomonas aeruginosa and Klebsiella pneumonia respectively (Table 2). For Gentamicin it was between 22-24 mm. Antifungal activity was tested for promising antibacterial peptides (Chains 104, 105, 109, 201, 204, 306, 307, 308, 310) against Aspergillus flavus (DSM 1959) and Penicillium chrysogenum (DSM 1075). All these peptides has activity at a concentration of 20 μg, Amphotericin B was used as a positive control at 20 μg (FIG. 7).

[7] = test system: gram positive and negative bacteria; experiment: MIC by micro broth dilution, summary over the strains tested; format: cell-based
Experimental: as §1

[8] = test system: Penicillium chrysogenum (DSM 1075); experiment: Radial diffusion assay, antifungal, P. chrysogenum; format: cell-based; conditions: 20 μg
Experimental: as §3, §4

S. aureus COL (MRSA) = experiment: Synergistic activity with Ertapenem (4 μg/ml) against MRSA, MIC; format: cell-based, Staphylococcus aureus; conditions: Ertapenem 4 μg/ml; L-form
Experimental: as §1
Peptides Chain 104, Chain 105, Chain 201, Chain 308, Chain 310 were tested against antibiotic-sensitive strains of S. aureus RN4220 and methicillin resistant strains of S. aureus COL (MRSA). Chain peptides comprising of either L- or D-form amino acids were tested against these bacteria, and the D-form peptides were found have better activity compared to L-form (Table 6). Synergistic activity of chain peptides along with Ertapenem (4 μg/ml) was tested to know whether it will influence the activity against MRSA strains. […] Chain 310 has the best antibacterial activity against the MRSA strains with a MIC of 0.06 & 0.03 μg/ml along with Ertapenem (4 μg/ml) for both forms of L and D-peptides (Table 6).

[9] = Candida albicans clinical yeast strain 1
[10] = Candida albicans clinical yeast strain 2
[11] = Candida albicans clinical yeast strain 3
[12] = Candida albicans clinical yeast strain 4
[13] = Candida albicans clinical yeast strain 5
[14] = C. parapsilosis clinical yeast strain 1
[15] = C. parapsilosis clinical yeast strain 2
[16] = C. parapsilosis clinical yeast strain 3
[17] = C. parapsilosis clinical yeast strain 4
[18] = C. glabrata clinical yeast strain 1
[19] = C. glabrata clinical yeast strain 2
[20] = C. glabrata clinical yeast strain 3
[21] = C. glabrata clinical yeast strain 4

| Structure (SMILES) | Minimum inhibitory concentration, Acinetobacter johnsonii strain 1 [1] | Minimum inhibitory concentration [2] | Minimum inhibitory concentration [3, 9] | Minimum inhibitory concentration [3, 10] | Minimum inhibitory concentration [3, 11] | Minimum inhibitory concentration [3, 12] | Minimum inhibitory concentration [3, 13] | Minimum inhibitory concentration [4, 14] | Minimum inhibitory concentration [4, 15] | Minimum inhibitory concentration [4, 16] | Minimum inhibitory concentration [4, 17] | Minimum inhibitory concentration [5, 18] | Minimum inhibitory concentration [5, 19] | Minimum inhibitory concentration [5, 20] | Minimum inhibitory concentration [5, 21] | side effects to humans as tested by hemolysis assay (human erythrocytes) | antifungal activity against Aspergillus flavus [6] | activity against the four ATCC strains [7] | antifungal activity against Penicillium chrysogenum [8] | MIC against MRSA strains along with Ertapenem, L-peptide (S. aureus COL (MRSA)) |
| --- | --- | --- | --- | --- | --- | --- | --- | --- | --- | --- | --- | --- | --- | --- | --- | --- | --- | --- | --- | --- |
| CC[C@@H](C)[C@@H](NC(=O)[C@@H](CCSC)NC(=O)[C@@H](C)NC(=O)[C@@H](CCCNC(=N)N)NC(=O)[C@@H](Cc1c[nH]c2ccccc12)NC(=O)[C@@H](CCCCN)NC(=O)[C@H](N)CCCNC(=N)N)C(=O)N[C@H](CCCNC(=N)N)C(=O)N[C@H](CC(C)C)C(=O)N[C@H](Cc1c[nH]cn1)C(=O)N[C@H](C)C(=O)N[C@H](CCCCN)C(=O)N[C@H](CCCNC(=N)N)C(=O)N[C@H](CC(C)C)C(=O)N[C@H](CCCNC(=N)N)C(=O)N[C@H](CCCCN)C(=O)O [Chain104D] (H-[dR][dK][dW][dR][dA][dM][dI][dR][dL][dH][dA][dK][dR][dL][dR][dK]-OH) | 8 µg/mL (≈ 3.77 µM) | 4 | 8 | 8 | 8 | 8 | 8 | 4 | 4 | 4 | 2 | 8 | 8 | 8 | 16 |  |  |  |  |  |
| CC[C@@H](C)[C@@H](NC(=O)[C@@H](CCSC)NC(=O)[C@@H](C)NC(=O)[C@@H](CCCNC(=N)N)NC(=O)[C@@H](Cc1c[nH]c2ccccc12)NC(=O)[C@@H](CCCCN)NC(=O)[C@H](N)CCCNC(=N)N)C(=O)N[C@H](CCCNC(=N)N)C(=O)N[C@H](CC(C)C)C(=O)N[C@H](Cc1c[nH]cn1)C(=O)N[C@H](C)C(=O)N[C@H](CCCCN)C(=O)N[C@H](Cc1c[nH]c2ccccc12)C(=O)N[C@H](CC(C)C)C(=O)N[C@H](CCCNC(=N)N)C(=O)N[C@H](CCCCN)C(=O)O [Chain105D] (H-[dR][dK][dW][dR][dA][dM][dI][dR][dL][dH][dA][dK][dW][dL][dR][dK]-OH) | 4 µg/mL (≈ 1.86 µM) | 8 | 32 | 16 | 32 | 32 | 32 | 8 | 8 | 8 | 4 | 16 | 16 | 8 | 32 |  |  |  |  |  |
| CC(C)C[C@H](NC(=O)[C@H](Cc1c[nH]c2ccccc12)NC(=O)[C@H](Cc1ccccc1)NC(=O)[C@H](Cc1c[nH]c2ccccc12)NC(=O)[C@H](CCCCN)NC(=O)[C@H](CC(C)C)NC(=O)[C@@H](N)CCCNC(=N)N)C(=O)N[C@@H](Cc1ccccc1)C(=O)N[C@@H](CCCNC(=N)N)C(=O)N[C@@H](CCCCN)C(=O)N[C@@H](CCCNC(=N)N)C(=O)O [Chain307] (H-RLKWFWLFRKR-OH; N-terminus and C-terminus assumed) |  |  |  |  |  |  |  |  |  |  |  |  |  |  |  | little side effects | has activity; also recorded: particularly active | very active | has activity; also recorded: particularly active |  |
| CC(C)C[C@H](NC(=O)[C@H](CCCCN)NC(=O)[C@H](CCCCN)NC(=O)[C@H](Cc1ccccc1)NC(=O)[C@H](CC(C)C)NC(=O)[C@H](Cc1c[nH]c2ccccc12)NC(=O)[C@H](CCCNC(=N)N)NC(=O)[C@H](Cc1c[nH]c2ccccc12)NC(=O)[C@H](CCCCN)NC(=O)[C@H](CCCNC(=N)N)NC(=O)[C@@H](N)CCCCN)C(=O)O [Chain310] (H-KRKWRWLFKKL-OH; N-terminus and C-terminus assumed) |  |  |  |  |  |  |  |  |  |  |  |  |  |  |  | little side effects | has activity; also recorded: particularly active | very active | has activity; also recorded: particularly active | 0.06 µg/mL |
